Holding throughout (format): in vivo, C57BL/6 mice
In experiment [1] the test system is bleomycin-induced pulmonary fibrosis model. Briefly: Early pulmonary fibrosis: bleomycin-induced model, dosing from one week after modelling. The settings on record: early pulmonary fibrosis, 120 mg/kg/d intragastric, 14 days, from one week after model; for Leucocyte / Lymphocyte / Neutrophil: blood, Day 15, twice every day; for Ashcroft scores: lung tissue HE staining.

For experiment [2] the test system is unchanged. Nature of the experiment: Comparison with comparative drugs: bleomycin-induced model, hydroxyproline and TGF-β. To be noted: 120 mg/kg/d intragastric, twice every day, 14 days, from two weeks after model; Day 15.
Experiment [3] has as its system influenza B virus-induced pulmonary fibrosis model (influenza B (H7N9) virus). To be noted: 120 mg/kg/d intragastric, 14 days; for Ashcroft scores: influenza B virus + bleomycin, lung tissue HE; for IL-1β / NF-κB / TNF-α / IL-6: serum, from two weeks after model; for IL-1β / NF-κB / TNF-α: influenza B (H7N9) + bleomycin; for IL-6: influenza B + bleomycin.
For experiment [4], the system named is coronavirus-induced pulmonary fibrosis model (HcoV-OC43). Nature of the experiment: Coronavirus-induced pulmonary fibrosis model. To be noted: 120 mg/kg/d intragastric, 14 days; for Ashcroft scores: coronavirus HcoV-OC43 + bleomycin, lung tissue HE; for IL-1β / IL-6 / NF-κB / TNF-α: serum, HcoV-OC43 + bleomycin, from two weeks after model. An excerpt: Experimental method: an in-vivo coronavirus-induced pulmonary fibrosis model mice was established: C57BL/6 mice (with weights being 22-25 g) were randomly and evenly divided into a plurality of groups, including blank control group, model group, Nintedanib positive control group, hypoxanthine analogue A group, hypoxanthine analogue B group, hypoxanthine analogue C group, compound 1 group, compound 2 group . . . compound 12 group, with 9 mice in each group. On Day 1, the mice in the blank control group were instilled with normal saline nasally, and the mice in other groups were all infected with HcoV-OC43 coronavirus strains (30 μL) through nasal instillation. On Day 2, the mice received 5 mg/kg bleomycin through tracheas to induce their pulmonary fibrosis. After the model was established for two weeks, the mice in each group were intragastrically administrated for intervention for consecutive 14 days; the mice in blank control group and model group intragastrically received the same dosage of the normal saline as those in drug groups; the mice in Nintedanib positive control group received Nintedanib (120 mg/kg); the mice in hypoxanthine analogue A group, hypoxanthine analogue B group and hypoxanthine analogue C group respectively received hypoxanthine analogue A (120 mg/kg/d), hypoxanthine analogue B (120 mg/kg/d) and hypoxanthine analogue C (120 mg/kg/d); and the mice in compound 1 group, compound 2 group . . . compound 12 group respectively received compound 1 (120 mg/kg/d), compound 2 (120 mg/kg/d) . . . compound 12 (120 mg/kg/d) prepared in example 1. After administration for consecutive 14 days, the mice were observed every day, and their weights and death conditions were recorded. After administration, blood was taken from eyeballs for immediately detecting the expression levels of NF-κB, TNF-α, IL-1 and IL-6 in serum, and lung tissues were taken for HE detection and Ashcroft scoring.

The test system of experiment [5] is novel coronavirus-induced pulmonary fibrosis model (COVID-19 novel coronavirus strains). Briefly: Novel coronavirus-induced pulmonary fibrosis model. The settings on record: 120 mg/kg/d intragastric, 14 days; for Ashcroft scores: novel coronavirus + bleomycin, lung tissue HE; for IL-1β / IL-6 / NF-κB / TNF-α: serum, COVID-19 novel coronavirus + bleomycin, from two weeks after model. From the text:
Experimental method: an in-vivo novel coronavirus-induced pulmonary fibrosis model was established: C57BL/6 mice (with weights being 22-25 g) were randomly and evenly divided into a plurality of groups, including blank control group, model group, Nintedanib positive control group, hypoxanthine analogue A group, hypoxanthine analogue B group, hypoxanthine analogue C group, compound 1 group, a compound 2 group . . . compound 12 group, with 9 mice in each group. On Day 1, the mice in blank control group were instilled with normal saline nasally, and the mice in other groups were all infected with COVID-19 novel coronavirus strains (30 μL) through nasal instillation. On Day 2, the mice received 5 mg/kg bleomycin through tracheas to induce their pulmonary fibrosis. After the model was established for two weeks, the mice in each group were intragastrically administrated for intervention for consecutive 14 days; the mice in blank control group and model group intragastrically received the same dosage of normal saline as those in drug groups; the mice in Nintedanib positive control group received Nintedanib (120 mg/kg); the mice in hypoxanthine analogue A group, hypoxanthine analogue B group and hypoxanthine analogue C group respectively received hypoxanthine analogue A (120 mg/kg/d), hypoxanthine analogue B (120 mg/kg/d) and hypoxanthine analogue C (120 mg/kg/d); and the mice in compound 1 group, compound 2 group . . . compound 12 group respectively received compound 1 (120 mg/kg/d), compound 2 (120 mg/kg/d) . . . compound 12 (120 mg/kg/d) prepared in example 1. After administration for consecutive 14 days, the mice were observed every day, and their weights and death conditions were recorded. After administration, blood was taken from eyeballs for immediately detecting the expression levels of NF-κB, TNF-α, IL-1 and IL-6 in serum, and lung tissues were taken for HE detection and Ashcroft scoring.

`CC(C)Oc1ncnc2[nH]cnc12` [Compound 1]: in experiment [1], the Leucocyte is given as 4.15 10^9/L, the Lymphocyte is reported as 5.42 10^9/L, the Neutrophil is 1.11 10^9/L and the Ashcroft scores turned out to be 0.99. Moreover, in experiment [2], the “Hydroxyproline in bronchoalveolar lavage fluids” value was found to be 0.75 ± 0.04 µg/mg, the “Hydroxyproline in lung tissues” value amounted to 1.45 ± 0.09 µg/mg, the “TGF-β in bronchoalveolar lavage fluids” value worked out at 4.05 ± 0.15 µg/L and the “TGF-β in lung tissues” value was 24.15 ± 1.21 µg/L. In experiment [3], the Ashcroft scores is given as 1.19, the IL-1β is listed as 26.3 pg/mL, the NF-κB was 30.5 pg/mL and the TNF-α was found to be 72.9 pg/mL. For the same compound, in experiment [3], the IL-6 was 65.1 pg/mL. Further, in experiment [4], the Ashcroft scores was 1.18, the IL-1β is listed as 31.8 pg/mL, the IL-6 is 62.7 pg/mL and the NF-κB was found to be 23.9 pg/mL. Further, the TNF-α in experiment [4] is 51.8 pg/mL. In experiment [5], the Ashcroft scores was 1.08, the IL-1β is on record as 36.4 pg/mL, the IL-6 was 68.3 pg/mL and the NF-κB was 26.6 pg/mL. Moreover, the TNF-α in experiment [5] was 63.3 pg/mL.

On to `CC(C)n1cnc2c(=O)[nH]cnc21` [Compound 2], for which, in experiment [1], the Leucocyte was 4.11 10^9/L, the Lymphocyte was 5.19 10^9/L, the Neutrophil is reported as 1.04 10^9/L and the Ashcroft scores was 1.01. Also, in experiment [2], the “Hydroxyproline in bronchoalveolar lavage fluids” value is 0.74 ± 0.05 µg/mg, the “Hydroxyproline in lung tissues” value is 1.51 ± 0.08 µg/mg, the “TGF-β in bronchoalveolar lavage fluids” value came to 4.02 ± 0.15 µg/L and the “TGF-β in lung tissues” value amounted to 24.10 ± 2.14 µg/L. In experiment [3], the Ashcroft scores worked out at 1.09, the IL-1β came out at 26.6 pg/mL, the NF-κB was found to be 29.5 pg/mL and the TNF-α is on record as 72.6 pg/mL. In addition, the IL-6 in experiment [3] stood at 65.4 pg/mL. For the same compound, in experiment [4], the Ashcroft scores was 1.16, the IL-1β stood at 32.0 pg/mL, the IL-6 was 62.6 pg/mL and the NF-κB was 24.6 pg/mL. For the same compound, the TNF-α in experiment [4] came to 51.2 pg/mL. Besides, in experiment [5], the Ashcroft scores was found to be 1.12, the IL-1β worked out at 35.1 pg/mL, the IL-6 turned out to be 66.0 pg/mL and the NF-κB was determined as 23.5 pg/mL. Also, in experiment [5], the TNF-α was determined as 64.8 pg/mL.

As to `CC(C)Oc1ncnc2c1ncn2C(C)C` [Compound 3], in experiment [1], the Leucocyte is on record as 4.01 10^9/L, the Lymphocyte is given as 4.99 10^9/L, the Neutrophil is 0.96 10^9/L and the Ashcroft scores is 0.92. Also, in experiment [2], the “Hydroxyproline in bronchoalveolar lavage fluids” value was 0.70 ± 0.05 µg/mg, the “Hydroxyproline in lung tissues” value was found to be 1.31 ± 0.07 µg/mg, the “TGF-β in bronchoalveolar lavage fluids” value amounted to 3.95 ± 0.19 µg/L and the “TGF-β in lung tissues” value amounted to 24.15 ± 2.04 µg/L. For the same compound, in experiment [3], the Ashcroft scores turned out to be 0.98, the IL-1β was determined as 25.8 pg/mL, the NF-κB amounted to 28.8 pg/mL and the TNF-α amounted to 71.8 pg/mL. The IL-6 in experiment [3] was 64.1 pg/mL. In addition, in experiment [4], the Ashcroft scores was found to be 1.03, the IL-1β is listed as 31.3 pg/mL, the IL-6 worked out at 61.7 pg/mL and the NF-κB is listed as 23.7 pg/mL. Further, the TNF-α in experiment [4] is given as 49.9 pg/mL. Besides, in experiment [5], the Ashcroft scores is recorded as 1.19, the IL-1β was determined as 36.3 pg/mL, the IL-6 came out at 65.3 pg/mL and the NF-κB was 24.7 pg/mL. Further, in experiment [5], the TNF-α is recorded as 63.5 pg/mL.

On to `CC(C)Oc1ncnc2ncn(C(C)C)c12` [Compound 4], for which, in experiment [1], the Leucocyte is 4.29 10^9/L, the Lymphocyte is on record as 5.56 10^9/L, the Neutrophil was 1.31 10^9/L and the Ashcroft scores came out at 1.18. For the same compound, in experiment [2], the “Hydroxyproline in bronchoalveolar lavage fluids” value is 0.71 ± 0.08 µg/mg, the “Hydroxyproline in lung tissues” value amounted to 1.29 ± 0.08 µg/mg, the “TGF-β in bronchoalveolar lavage fluids” value is 3.95 ± 0.14 µg/L and the “TGF-β in lung tissues” value stood at 24.58 ± 1.95 µg/L. Also, in experiment [3], the Ashcroft scores came out at 1.17, the IL-1β is 27.6 pg/mL, the NF-κB is reported as 29.3 pg/mL and the TNF-α is reported as 73.9 pg/mL. Further, the IL-6 in experiment [3] is given as 66.7 pg/mL. In addition, in experiment [4], the Ashcroft scores came to 1.39, the IL-1β is reported as 35.5 pg/mL, the IL-6 came to 63.9 pg/mL and the NF-κB is on record as 26.7 pg/mL. Moreover, the TNF-α in experiment [4] is 52.9 pg/mL. Moreover, in experiment [5], the Ashcroft scores amounted to 1.50, the IL-1β was determined as 37.2 pg/mL, the IL-6 is on record as 64.5 pg/mL and the NF-κB amounted to 25.2 pg/mL. The TNF-α in experiment [5] was 65.9 pg/mL.

Consider `CC(C)Oc1ncnc2nc[nH]c12` [Compound 5], for which, in experiment [1], the Leucocyte was 4.23 10^9/L, the Lymphocyte is recorded as 5.60 10^9/L, the Neutrophil is 1.26 10^9/L and the Ashcroft scores was determined as 1.22. Moreover, in experiment [2], the “Hydroxyproline in bronchoalveolar lavage fluids” value was found to be 0.69 ± 0.09 µg/mg, the “Hydroxyproline in lung tissues” value worked out at 1.43 ± 0.07 µg/mg, the “TGF-β in bronchoalveolar lavage fluids” value was found to be 3.93 ± 0.18 µg/L and the “TGF-β in lung tissues” value is 24.18 ± 1.65 µg/L. Also, in experiment [3], the Ashcroft scores is recorded as 1.18, the IL-1β was determined as 28.1 pg/mL, the NF-κB worked out at 31.4 pg/mL and the TNF-α came to 76.6 pg/mL. Also, in experiment [3], the IL-6 is 66.9 pg/mL. Further, in experiment [4], the Ashcroft scores came to 1.31, the IL-1β is 37.1 pg/mL, the IL-6 is recorded as 64.9 pg/mL and the NF-κB is 25.9 pg/mL. In experiment [4], the TNF-α worked out at 52.6 pg/mL. Besides, in experiment [5], the Ashcroft scores is 1.11, the IL-1β is recorded as 37.5 pg/mL, the IL-6 is listed as 66.4 pg/mL and the NF-κB was 24.3 pg/mL. For the same compound, in experiment [5], the TNF-α came to 66.1 pg/mL.

For the origin of these results see patent publication US20250188082A1, “Use of Hypoxanthine Compound In Preparation of Drug For Treating Pulmonary Fibrosis” (Sichuan Yiasuo Pharmaceutical Technology Co., Ltd., priority 2022, published 2025).
